Data published in ChEMBL document CHEMBL6078704, “Redesigning Berberines and Sanguinarines to Target Soluble Epoxide Hydrolase for Enhanced Anti-Inflammatory Efficacy” (J Med Chem, 2024).
Activity calls are given as the source filed them. The rule behind the calls is not given here.

Tests used:
[1] = tested on: Mus musculus; assay: Antiinflammatory activity against cerulein-induced acute pancreatitis in CD1 mouse assessed as increase in pancreatic 14,15-EET/DHET ratio at 20 mg/kg, ip pretreated with cerulein followed by compound injection on 30 and 150 mins and measured 6 hrs post cerulein treatment relative to model group; assay type: functional; conditions: time 30-360 min
[2] = tested on: Mus musculus; assay: (§1) Anti-inflammatory activity in cerulein-induced acute pancreatitis in CD1 mouse model assessed as decrease in plasma TNFalpha level at 20 mg/kg, ip administered 30 and 150 mins post-cerulein treatment measured after 6 hrs post-cerulein treatment by ELISA; assay type: functional, organism-based
[3] = Acute toxicity in female BALB/c mouse assessed as physiological changes at 100 mg/kg, po single dose measured for 24 hrs; assay type: organism-based; conditions: in vivo
[4] = Volume of distribution (Vz) in Sprague-Dawley rat at 5 mg/kg, iv measured up to 24 hrs; assay type: ADME, organism-based; conditions: in vivo, read-out: Vz
[5] = tested on: Mus musculus; assay: Antiinflammatory activity against cerulein-induced acute pancreatitis in CD1 mouse assessed as increase in plasma 8,9-EET/DHET ratio at 20 mg/kg, ip pretreated with cerulein followed by compound injection on 30 and 150 mins and measured 6 hrs post cerulein treatment relative to model group; assay type: functional; conditions: time 30-360 min
[6] = tested on: Mus musculus; assay: as §1, with “cerulein-induced pancreatitis by measuring pancreatic histopathology” for “plasma TNFalpha level”, “H and E staining based analysis” for “ELISA”; assay type: functional, organism-based; conditions: time 30-360 min
[7] = Oral bioavailability in Sprague-Dawley rat at 20 mg/kg measured up to 24 hrs; assay type: ADME, organism-based; conditions: in vivo
[8] = Tmax in Sprague-Dawley rat at 5 mg/kg, iv measured up to 24 hrs; assay type: ADME, organism-based; conditions: in vivo
[9] = Volume of distribution (Vz) in Sprague-Dawley rat at 20 mg/kg, po measured up to 24 hrs; assay type: ADME, organism-based; conditions: in vivo
[10] = tested on: Staphylococcus aureus; assay: Antimicrobial activity against Staphylococcus aureus ATCC 29213 by microbroth dilution method; assay type: functional
[11] = AUC (0 to 24 hrs) in Sprague-Dawley rat at 5 mg/kg, iv measured up to 24 hrs; assay type: ADME, organism-based; conditions: in vivo
[12] = Half life in Sprague-Dawley rat at 5 mg/kg, iv measured up to 24 hrs; assay type: ADME, organism-based; conditions: in vivo
[13] = AUC (0 to infinity) in Sprague-Dawley rat at 5 mg/kg, iv measured up to 24 hrs; assay type: ADME, organism-based; conditions: in vivo
[14] = tested on: HEK-293T; assay: Cytotoxicity against human 293T cells assessed as cell viability at 0.5 to 5 uM measured after 48 hrs by CCK-8 assay; assay type: toxicity, cell-based; conditions: dose 0.5-5 µM
[15] = tested on: Mus musculus; assay: Antiinflammatory activity against cerulein-induced acute pancreatitis in CD1 mouse assessed as increase in pancreatic 8,9-EET/DHET ratio at 20 mg/kg, ip pretreated with cerulein followed by compound injection on 30 and 150 mins and measured 6 hrs post cerulein treatment relative to model group; assay type: functional; conditions: time 30-360 min
[16] = Acute toxicity in male BALB/c mouse assessed as physiological changes at 100 mg/kg, po single dose measured for 24 hrs; assay type: organism-based; conditions: in vivo
[17] = tested on: Mus musculus; assay: Antiinflammatory activity against cerulein-induced acute pancreatitis in CD1 mouse assessed as increase in plasma 14,15-EET/DHET ratio at 20 mg/kg, ip pretreated with cerulein followed by compound injection on 30 and 150 mins and measured 6 hrs post cerulein treatment relative to model group; assay type: functional; conditions: time 30-360 min
[18] = Acute toxicity in BALB/c mouse assessed as pathological changes in liver tissue by measuring hemorrhage at 100 mg/kg, po single dose measured for 24 hrs; assay type: organism-based; conditions: in vivo
[19] = Acute toxicity in BALB/c mouse assessed as pathological changes in kidney tissue by measuring hemorrhage at 100 mg/kg, po single dose measured for 24 hrs; assay type: organism-based; conditions: in vivo
[20] = tested on: Mus musculus; assay: Anti-inflammatory activity in cerulein-induced acute pancreatitis in CD1 mouse model assessed as decrease in plasma IL-6 level at 20 mg/kg, ip administered 30 and 150 mins post-cerulein treatment measured after 6 hrs post-cerulein treatment by ELISA; assay type: functional, organism-based
[21] = Tmax in Sprague-Dawley rat at 20 mg/kg, po measured up to 24 hrs; assay type: ADME, organism-based; conditions: in vivo
[22] = tested on: Mus musculus; assay: In vivo inhibition sEH activity in cerulein-induced acute pancreatitis in CD1 mouse model assessed as enzyme activity in pancreatic homogenate at 20 mg/kg, ip administered 30 and 150 mins post-cerulein treatment measured after 6 hrs post-cerulein treatment; assay type: functional, organism-based; conditions: time 30-360 min
[23] = Acute toxicity in BALB/c mouse assessed as pathological changes in liver tissue by measuring necrosis at 100 mg/kg, po single dose measured for 24 hrs; assay type: organism-based; conditions: in vivo
[24] = Cmax in Sprague-Dawley rat at 20 mg/kg, po measured up to 24 hrs; assay type: ADME, organism-based; conditions: in vivo
[25] = Acute toxicity in BALB/c mouse assessed as pathological changes in liver tissue by measuring inflammation at 100 mg/kg, po single dose measured for 24 hrs; assay type: organism-based; conditions: in vivo
[26] = AUC (0 to infinity) in Sprague-Dawley rat at 20 mg/kg, po measured up to 24 hrs; assay type: ADME, organism-based; conditions: in vivo
[27] = Half life in Sprague-Dawley rat at 20 mg/kg, po measured up to 24 hrs; assay type: ADME, organism-based; conditions: in vivo
[28] = tested on: Staphylococcus aureus; assay: Antimicrobial activity against methicillin-resistant Staphylococcus aureus 19B120 by microbroth dilution method; assay type: functional
[29] = AUC (0 to 24 hrs) in Sprague-Dawley rat at 20 mg/kg, po measured up to 24 hrs; assay type: ADME, organism-based; conditions: in vivo
[30] = Acute toxicity in BALB/c mouse assessed as pathological changes in kidney tissue by measuring necrosis at 100 mg/kg, po single dose measured for 24 hrs; assay type: organism-based; conditions: in vivo
[31] = Clearance in Sprague-Dawley rat at 20 mg/kg, po measured up to 24 hrs; assay type: ADME, organism-based; conditions: in vivo
[32] = Cmax in Sprague-Dawley rat at 5 mg/kg, iv measured up to 24 hrs; assay type: ADME, organism-based; conditions: in vivo
[33] = tested on: Mus musculus; assay: Anti-inflammatory activity in carrageen-induced paw edema BALB/c mouse model assessed as inhibition of soft tissue edema and inflammation measured immediately at 20 mg/kg, po measured at 3 hrs; assay type: functional
[34] = Acute toxicity in BALB/c mouse assessed as pathological changes in kidney tissue by measuring inflammation at 100 mg/kg, po single dose measured for 24 hrs; assay type: organism-based; conditions: in vivo
[35] = tested on: HepG2; assay: Cytotoxicity against human HepG2 cells assessed as cell viability at 0.5 to 5 uM measured after 48 hrs by CCK-8 assay; assay type: toxicity, cell-based; conditions: hepg2, 48 h, dose 0.5-5 µM
[36] = Clearance in Sprague-Dawley rat at 5 mg/kg, iv measured up to 24 hrs; assay type: ADME, organism-based; conditions: in vivo

In the case of `COc1cc2c(cc1OC)[C@H]1Cc3ccc(NC(=O)NCc4ccc(OC(F)(F)F)cc4)cc3CN1CC2`, the “fold change (FC)” value [1] is reported as 26, the Activity [2] is reported as “Active” and the Activity [3] is reported as “Non-toxic”. The Vd [4] was 1.49 L/kg, the “fold change (FC)” value [5] was 3.8 and the Activity [6] was “Active”. The bioavailability [7] was 89.3%, the Tmax [8] was 4.8 min and the Vz [9] was 1.889 L/kg. The MIC [10] was > 64 µg/mL, the AUC(0-t) at 24 h [11] was 27800 ng·h/mL and the half-life [12] was 6.1 h. The AUC(0-inf) [13] was 29600 ng·h/mL, the Activity [14] was “Non-toxic” and the “fold change (FC)” value [15] was 5.4. The Activity [16] was “Non-toxic”, the “fold change (FC)” value [17] was 15.4 and the Activity [18] was “Non-toxic”. The Activity [19] was “Non-toxic”, the Activity [20] was “Active” and the Tmax [21] was 1.67 h. The Activity [22] was “Active”, the Activity [23] was “Non-toxic” and the Cmax [24] was 10300 ng/mL. The Activity [25] was “Non-toxic”, the AUC(0-inf) [26] was 110000 ng·h/mL and the half-life [27] was 7.2 h. The MIC [28] was > 64 µg/mL, the AUC(0-t) at 24 h [29] was 99500 ng·h/mL and the Activity [30] was “Non-toxic”. It also gave a CL/F [31] of 3.03 mL/min/kg, a Cmax [32] of 4860 ng/mL and an inhibition in vivo at 20 mg/kg [33] of 33%. The Activity [34] was “Non-toxic”, the Activity [35] was “Non-toxic” and the clearance [36] was 2.85 mL/min/kg.
